# Measurements taken from patent US20260285850A1, “SUBSTITUTED OXAZOLIDINONES AND IMIDAZOLINONES AS HERBICIDES” (FMC CORPORATION, priority 2023, published 2026).
# Key:
# Assay type in all cases: in vivo
# [1] = system: sedge, umbrella (small-flower umbrella sedge, Cyperus difformis); experiment: Test B flooded paddy test, visual plant response rating 0-100; settings: 250 g ai/ha, Flood, applied to paddy water, evaluated after 13 days
# Method in brief: (§1)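 Plants were grown to the 2-leaf stage, then pots were flooded to 3 cm above the soil and compound was applied directly to the paddy water, with that depth kept throughout.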
# [2] = system: ducksalad (Heteranthera limosa); experiment: as above; settings: 250 g ai/ha, Flood, applied to paddy water, evaluated after 13 days
# Method in brief: as §1
# [3] = system: rice (Oryza sativa); experiment: as above; settings: 250 g ai/ha, Flood, applied to paddy water, evaluated after 13 days
# Method in brief: as §1
# [4] = system: barnyardgrass (Echinochloa crusgalli); experiment: as above; settings: 250 g ai/ha, Flood, applied to paddy water, evaluated after 13 days
# Method in brief: as §1
# [5] = system: kochia (Bassia scoparia); experiment: Test A preemergence soil spray, visual injury rating 0-100; settings: 10 days
# Method in brief: (§2)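 Preemergence directed soil spray or postemergence spray (2-10 cm, 1-2 leaf); loam/sand mix; compound in non-phytotoxic solvent + surfactant. Greenhouse, 10 d. Visual injury vs untreated, 0 = none, 100 = complete control.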
# [6] = system: blackgrass (Alopecurus myosuroides); experiment: as above; settings: 10 days
# Method in brief: as §2
# [7] = system: oat, wild (wild oat, Avena fatua); experiment: as above; settings: 10 days
# Method in brief: as §2
# [8] = system: soybean (Glycine max); experiment: as above; settings: 10 days
# Method in brief: as §2
# [9] = system: barnyardgrass (Echinochloa crus-galli); experiment: as above; settings: 10 days
# Method in brief: as §2
# [10] = system: ragweed (common ragweed, Ambrosia artemisiifolia); experiment: as above; settings: 10 days
# Method in brief: as §2
# [11] = system: corn (Zea mays); experiment: as above; settings: 10 days
# Method in brief: as §2
# [12] = system: ryegrass, Italian (italian ryegrass, Lolium multiflorum); experiment: as above; settings: 10 days
# Method in brief: as §2
# [13] = system: wheat (Triticum aestivum); experiment: as above; settings: 10 days
# Method in brief: as §2
# [14] = system: palmer (palmer amaranth, palmer pigweed, Amaranthus palmeri); experiment: as above; settings: 10 days
# Method in brief: as §2
# [15] = system: green foxtail (Setaria viridis); experiment: as above; settings: 10 days
# Method in brief: as §2
# [16] = system: kochia (Bassia scoparia); experiment: Test A postemergence application, visual injury rating 0-100
# Method in brief: as §2
# [17] = system: blackgrass (Alopecurus myosuroides); experiment: as above
# Method in brief: as §2
# [18] = system: oat, wild (wild oat, Avena fatua); experiment: as above
# Method in brief: as §2
# [19] = system: soybean (Glycine max); experiment: as above
# Method in brief: as §2
# [20] = system: horseweed (Erigeron canadensis); experiment: as above
# Method in brief: as §2
# [21] = system: galium (catchweed bedstraw, Galium aparine); experiment: as above
# Method in brief: as §2
# [22] = system: barnyardgrass (Echinochloa crus-galli); experiment: as above
# Method in brief: as §2
# [23] = system: ragweed (common ragweed, Ambrosia artemisiifolia); experiment: as above
# Method in brief: as §2
# [24] = system: corn (Zea mays); experiment: as above
# Method in brief: as §2
# [25] = system: ryegrass, Italian (italian ryegrass, Lolium multiflorum); experiment: as above
# Method in brief: as §2
# [26] = system: wheat (Triticum aestivum); experiment: as above
# Method in brief: as §2
# [27] = system: palmer (palmer amaranth, palmer pigweed, Amaranthus palmeri); experiment: as above
# Method in brief: as §2
# [28] = system: green foxtail (Setaria viridis); experiment: as above
# Method in brief: as §2
# [29] = 62 g ai/ha, 0 = no effect, 100 = complete control
# [30] = 62 g ai/ha, postemergence, 10 days, 0 = no effect, 100 = complete control
# [31] = Postemergence, 16 g ai/ha, greenhouse 10 days, 0 no effect, 100 complete control
smiles,measurement,setting,value
CC1(C(=O)NC2CC=C(C(=O)O)C2)CN(c2cc(Cl)cc(Cl)c2)C(=O)O1 (stereo not shown) [Compound 157],"Plant response rating, Sedge, Umbrella (0 to 100 scale, 0 is no effect and 100 is complete control)",[1],0
same,"Plant response rating, Ducksalad (0 to 100 scale, 0 is no effect and 100 is complete control)",[2],0
same,"Plant response rating, Rice (0 to 100 scale, 0 is no effect and 100 is complete control)",[3],0
same,"Plant response rating, Barnyardgrass (0 to 100 scale, 0 is no effect and 100 is complete control)",[4],0
same,Kochia plant response rating,"[5]; 16 g ai/ha, 0 to 100 scale",0
same,Kochia plant response rating (0-100),[5]; [29],0
same,Blackgrass plant response rating,"[6]; 16 g ai/ha, 0 to 100 scale",0
same,Blackgrass plant response rating (0-100),[6]; [29],0
same,"Oat, Wild plant response rating","[7]; 16 g ai/ha, 0 to 100 scale",0
same,"Oat, Wild plant response rating (0-100)",[7]; [29],0
same,Soybean plant response rating,"[8]; 16 g ai/ha, 0 to 100 scale",0
same,Soybean plant response rating (0-100),[8]; [29],0
same,Barnyardgrass plant response rating,"[9]; 16 g ai/ha, 0 to 100 scale",0
same,Barnyardgrass plant response rating (0-100),[9]; [29],30
same,Ragweed plant response rating,"[10]; 16 g ai/ha, 0 to 100 scale",0
same,Ragweed plant response rating (0-100),[10]; [29],0
same,Corn plant response rating,"[11]; 16 g ai/ha, 0 to 100 scale",0
same,Corn plant response rating (0-100),[11]; [29],0
same,"Ryegrass, Italian plant response rating","[12]; 16 g ai/ha, 0 to 100 scale",0
same,"Ryegrass, Italian plant response rating (0-100)",[12]; [29],0
same,Wheat plant response rating,"[13]; 16 g ai/ha, 0 to 100 scale",0
same,Wheat plant response rating (0-100),[13]; [29],0
same,"Pigweed, Palmer plant response rating","[14]; 16 g ai/ha, 0 to 100 scale",0
same,"Pigweed, Palmer plant response rating (0-100)",[14]; [29],0
same,"Foxtail, Green plant response rating","[15]; 16 g ai/ha, 0 to 100 scale",0
same,"Foxtail, Green plant response rating (0-100)",[15]; [29],0
same,Kochia plant response rating (0-100),[16]; [30],60
same,Kochia plant response rating (0 to 100 scale),[16]; [31],50
same,Blackgrass plant response rating (0-100),[17]; [30],30
same,Blackgrass plant response rating (0 to 100 scale),[17]; [31],0
same,"Oat, Wild plant response rating (0-100)",[18]; [30],0
same,"Oat, Wild plant response rating (0 to 100 scale)",[18]; [31],0
same,Soybean plant response rating (0-100),[19]; [30],60
same,Soybean plant response rating (0 to 100 scale),[19]; [31],40
same,Horseweed plant response rating (0-100),[20]; [30],0
same,Horseweed plant response rating (0 to 100 scale),[20]; [31],0
same,Galium plant response rating (0-100),[21]; [30],70
same,Galium plant response rating (0 to 100 scale),[21]; [31],30
same,Barnyardgrass plant response rating (0-100),[22]; [30],40
same,Barnyardgrass plant response rating (0 to 100 scale),[22]; [31],0
same,Ragweed plant response rating (0-100),[23]; [30],30
same,Ragweed plant response rating (0 to 100 scale),[23]; [31],0
same,Corn plant response rating (0-100),[24]; [30],0
same,Corn plant response rating (0 to 100 scale),[24]; [31],0
same,"Ryegrass, Italian plant response rating (0-100)",[25]; [30],60
same,"Ryegrass, Italian plant response rating (0 to 100 scale)",[25]; [31],0
same,Wheat plant response rating (0-100),[26]; [30],30
same,Wheat plant response rating (0 to 100 scale),[26]; [31],0
same,"Pigweed, Palmer plant response rating (0-100)",[27]; [30],50
same,"Pigweed, Palmer plant response rating (0 to 100 scale)",[27]; [31],0
same,"Foxtail, Green plant response rating (0-100)",[28]; [30],10
same,"Foxtail, Green plant response rating (0 to 100 scale)",[28]; [31],0
